Experimental data taken from ChEMBL document CHEMBL4152336, “Optimization of the first small-molecule relaxin/insulin-like family peptide receptor (RXFP1) agonists: Activation results in an antifibrotic gene expression profile” (Eur J Med Chem, 2018).
≈ marks a conversion by molar mass, not a printed value. Calls of active or inactive are those of the source. The calls are words filed in the database; no cut-off is given here.

What was measured:
Relaxin receptor 1 = molecular target: T1, Relaxin receptor 1 (Homo sapiens, UniProt Q9HBX9); assay type: functional, cell-based, HEK293
T1 sequence (Q9HBX9 whole entry): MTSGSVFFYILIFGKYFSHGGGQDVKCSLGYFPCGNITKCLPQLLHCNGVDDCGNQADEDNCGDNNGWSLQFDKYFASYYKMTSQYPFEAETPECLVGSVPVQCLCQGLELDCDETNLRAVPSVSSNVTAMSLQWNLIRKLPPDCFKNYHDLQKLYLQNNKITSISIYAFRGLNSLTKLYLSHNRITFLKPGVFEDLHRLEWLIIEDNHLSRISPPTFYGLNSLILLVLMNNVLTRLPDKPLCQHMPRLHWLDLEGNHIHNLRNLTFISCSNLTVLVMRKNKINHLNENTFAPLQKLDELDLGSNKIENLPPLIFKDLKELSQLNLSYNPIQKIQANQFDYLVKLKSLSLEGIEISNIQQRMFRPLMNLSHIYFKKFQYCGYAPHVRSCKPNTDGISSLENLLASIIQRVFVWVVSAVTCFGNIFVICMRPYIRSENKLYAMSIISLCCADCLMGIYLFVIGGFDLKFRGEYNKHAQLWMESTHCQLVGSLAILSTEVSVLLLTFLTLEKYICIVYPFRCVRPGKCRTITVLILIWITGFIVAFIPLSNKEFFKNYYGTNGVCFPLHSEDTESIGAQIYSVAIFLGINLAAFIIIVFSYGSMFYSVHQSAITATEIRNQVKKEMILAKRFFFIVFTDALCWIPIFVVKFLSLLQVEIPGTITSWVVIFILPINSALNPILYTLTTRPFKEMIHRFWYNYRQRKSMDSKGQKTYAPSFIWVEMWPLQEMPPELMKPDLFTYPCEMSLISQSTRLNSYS

[1] = molecular target: T2, Relaxin receptor 1 (Homo sapiens) (UniProt Q9HBX9); assay type: functional, cell-based; details: HEK293
T2 sequence (whole entry): T1 sequence (Q9HBX9 whole entry)

[2] = rat, microsomes
Description: Half life in rat liver microsomes

[3] = Aqueous kinetic solubility of the compound in PBS by shake-flask method; assay type: physicochemical; details: for solubility kinetic: PBS, read-out: Kinetic_solubility
HEK293 = test: Cytotoxicity against HEK293 cells assessed as reduction in cell viability by measuring ATP level by ATPlite assay; assay type: cell-based; details: Homo sapiens
[4] = Metabolic stability in mouse liver microsomes assessed as parent compound remaining after 60 mins; assay type: ADME, microsome; details: read-out: Stability

| SMILES | EC50 (Relaxin receptor 1; read-out: EC50) [µM] | Efficacy [1] | also measured |
| --- | --- | --- | --- |
| O=C(Nc1cccc(S(=O)(=O)C(F)(F)F)c1)c1ccccc1NC(=O)C1CCCCC1 | 1.06 | 87% | – |
| CCOc1ccccc1C(=O)Nc1cccnc1C(=O)Nc1cccc(S(=O)(=O)C(F)(F)F)c1 | 4.71 | 73% | t1/2 [2]: > 30 min; solubility kinetic [3]: < 1000 µM |
| O=C(Nc1cccc(Br)c1)c1ccccc1NC(=O)C1CCCCC1 | 2.65 | 91% | – |
| O=C(Nc1cccc(C(F)(F)F)c1)c1ccccc1NC(=O)C1CC1 | 8.38 | 79% | – |
| COCCNc1ccccc1C(=O)Nc1cccc(C(F)(F)F)c1 | 59.3 | 63% | – |
| O=C(Nc1cccc([N+](=O)[O-])c1)c1ccccc1NC(=O)C1CCCCC1 | 5.93 | 93% | – |
| COc1ccccc1C(=O)Nc1cccc(C(=O)Nc2cccc(C(F)(F)F)c2)c1 | – | inactive | EC50 (Relaxin receptor 1; hek293): Not Active |
| O=C(Nc1cccc(F)c1)c1ccccc1NC(=O)C1CCCCC1 | 13.3 | 81% | – |
| CCCOc1ccccc1C(=O)Nc1ccccc1C(=O)Nc1cccc(S(=O)(=O)C(F)(F)F)c1 | 0.052 | 98% | EC50 (HEK293): 9.4 µM; t1/2 [2]: 26.8 min; solubility kinetic [3]: 17 µM (≈ 8.61 µg/mL) |
| CCCCC(=O)Nc1ccccc1C(=O)Nc1cccc(C(F)(F)F)c1 | 5.29 | 94% | – |
| O=C(Cc1ccccc1)Nc1ccccc1C(=O)Nc1cccc(C(F)(F)F)c1 | 8.38 | 86% | – |
| COc1cccc(NC(=O)c2ccccc2NC(=O)C2CCCCC2)c1 | 37.4 | 74% | – |
| O=C(Nc1cccc(C(F)(F)F)c1)c1ccccc1NC(=O)C1CCCC1 | 2.36 | 88% | – |
| O=C(Nc1cccc(C(F)(F)F)c1)c1ccccc1NC(=O)C1CCCCC1 | 1.88 | 92% | remaining at 1 h [4]: 70% |
| CCOc1ccccc1C(=O)Nc1ccccc1C(=O)Nc1cccc(S(=O)(=O)C(F)(F)F)c1 | – | – | t1/2 [2]: > 30 min |
| CCOc1ccccc1C(=O)Nc1sccc1C(=O)Nc1cccc(S(=O)(=O)C(F)(F)F)c1 | 2.36 | 95% | – |
| CCC(CC)C(=O)Nc1ccccc1C(=O)Nc1cccc(C(F)(F)F)c1 | 5.29 | 59% | – |
| CCOc1ccccc1C(=O)Nc1ncccc1C(=O)Nc1cccc(S(=O)(=O)C(F)(F)F)c1 | 1.67 | 98% | t1/2 [2]: 19.85 min; solubility kinetic [3]: < 1000 µM |
| O=C(Nc1ccc(C(F)(F)F)cc1)c1ccccc1NC(=O)C1CCCCC1 | 94 | 46% | – |
| O=C(NCc1ccco1)c1ccccc1NC(=O)c1ccccc1NC(=O)C1CCCCC1 | 9.4 | 45% | – |
| COc1ccc(C(=O)Nc2ccccc2C(=O)Nc2cccc(C(F)(F)F)c2)cc1 | 9.4 | 71% | – |
| CCOc1ccccc1C(=O)Nc1ccccc1C(=O)Nc1cccc(C(F)(F)F)c1 | 0.265 | 94% | – |
| CC(C)Oc1ccccc1C(=O)Nc1ccccc1C(=O)Nc1cccc(C(F)(F)F)c1 | 0.471 | 99% | – |
| O=C(Nc1ccccc1C(=O)Nc1ccccc1C(=O)NCc1ccco1)c1ccco1 | – | – | remaining at 1 h [4]: 2%; Kinetic_solubility ([3]; buffer): 3.7 µM |
| O=C(Nc1cccc(C(F)(F)F)c1)c1ccccc1NC(=O)C1CCC1 | 2.97 | 75% | – |
| COc1cccc(C(=O)Nc2ccccc2C(=O)Nc2cccc(C(F)(F)F)c2)c1 | 1.88 | 94% | – |
| CSc1cccc(NC(=O)c2ccccc2NC(=O)C2CCCCC2)c1 | 5.29 | 84% | – |
| Cc1ccccc1NC(=O)c1ccccc1NC(=O)C1CCCCC1 | – | inactive | EC50 (Relaxin receptor 1; hek293): Not Active |

| SMILES | EC50 (Relaxin receptor 1; read-out: EC50) [µM] | Efficacy [1] | also measured |
| --- | --- | --- | --- |
| O=C(NCc1cccc(C(F)(F)F)c1)c1ccccc1NC(=O)C1CCCCC1 | – | inactive | EC50 (Relaxin receptor 1; hek293): Not Active |
| COc1ccccc1C(=O)Nc1ccccc1C(=O)Nc1cccc(C(F)(F)F)c1 | 0.334 | 99% | – |
| COc1ccccc1C(=O)Nc1ccccc1C(=O)N(C)c1cccc(C(F)(F)F)c1 | 29.7 | 77% | – |
| O=C(Nc1ccccc1C(=O)Nc1cccc(C(F)(F)F)c1)c1ccccc1Cl | 3.74 | 92% | – |
| CCOc1ccccc1C(=O)Nc1ccncc1C(=O)Nc1cccc(S(=O)(=O)C(F)(F)F)c1 | 0.747 | 97% | t1/2 [2]: > 30 min |
| O=C(Nc1ccccc1C(=O)Nc1cccc(C(F)(F)F)c1)c1cccnc1 | 5.93 | 95% | – |
| CCOc1ccccc1S(=O)(=O)Nc1ccccc1C(=O)Nc1cccc(S(=O)(=O)C(F)(F)F)c1 | – | inactive | EC50 (Relaxin receptor 1; hek293): Not Active |
| O=C(Nc1cccc(SC(F)(F)F)c1)c1ccccc1NC(=O)C1CCCCC1 | 1.88 | 90% | – |
| O=C(Nc1ccccc1)c1ccccc1NC(=O)C1CCCCC1 | 94 | 57% | – |
| COc1cccc(OC)c1C(=O)Nc1ccccc1C(=O)Nc1cccc(C(F)(F)F)c1 | 7.47 | 42% | – |
| O=C(Nc1cccc(Cl)c1)c1ccccc1NC(=O)C1CCCCC1 | 3.34 | 89% | – |
| COc1ccccc1C(=O)Nc1ccccc1C(=O)Nc1cccc(S(=O)(=O)C(F)(F)F)c1 | 0.188 | 99% | t1/2 [2]: > 30 min |
| CCCCOc1ccccc1C(=O)Nc1ccccc1C(=O)Nc1cccc(S(=O)(=O)C(F)(F)F)c1 | 0.047 | 98% | t1/2 [2]: 19.5 min; solubility kinetic [3]: 5.3 µM (≈ 2.76 µg/mL) |
| O=C(Nc1cccc(C(F)(F)F)c1)c1ccccc1NC(=O)C1CCCCCC1 | 2.11 | 75% | – |
| CN(C)CCOc1ccccc1C(=O)Nc1ccccc1C(=O)Nc1cccc(C(F)(F)F)c1 | 3.74 | 92% | – |
| CCOc1ccccc1C(=O)Nc1cnccc1C(=O)Nc1cccc(S(=O)(=O)C(F)(F)F)c1 | 2.97 | 99% | solubility kinetic [3]: < 1000 µM |
| Cc1ccccc1C(=O)Nc1ccccc1C(=O)Nc1cccc(C(F)(F)F)c1 | 4.2 | 90% | – |
| O=C(Nc1cccc(-c2ccccc2)c1)c1ccccc1NC(=O)C1CCCCC1 | – | inactive | EC50 (Relaxin receptor 1; hek293): Not Active |
| COc1ccccc1C(=O)N(C)c1ccccc1C(=O)Nc1cccc(C(F)(F)F)c1 | – | inactive | EC50 (Relaxin receptor 1; hek293): Not Active |
| Cc1ccc(NC(=O)c2ccccc2NC(=O)C2CCCCC2)cc1 | 187 | 32% | – |
| COCCOc1ccccc1C(=O)Nc1ccccc1C(=O)Nc1cccc(C(F)(F)F)c1 | 0.747 | 98% | – |
| O=C(Nc1cccc(C(F)(F)F)c1)c1ccccc1NC(=O)c1ccccc1OC(F)(F)F | 1.18 | 96% | – |
| O=C(Nc1cccc(-c2cccc(C(F)(F)F)c2)c1)c1ccccc1NC(=O)C1CCCCC1 | – | inactive | EC50 (Relaxin receptor 1; hek293): Not Active |
| O=C(Nc1ccccc1C(=O)Nc1cccc(C(F)(F)F)c1)c1ccccc1 | 1.32 | 64% | – |
| CC(C)(C)c1cccc(NC(=O)c2ccccc2NC(=O)C2CCCCC2)c1 | 2.66 | 70% | – |
| O=C(Nc1cccc(-c2ccccc2C(F)(F)F)c1)c1ccccc1NC(=O)C1CCCCC1 | 2.65 | 74% | – |
| O=C(Nc1cccc(S(=O)(=O)C(F)(F)F)c1)c1ccccc1NC(=O)c1ccccc1OCC(F)(F)F | 0.067 | 97% | t1/2 [2]: > 30 min |
